Assay in all cases: NCI tumour cell line growth inhibition, 48 h
For assay [1], the system named is DU-145 prostate.
For assay [2], the system named is HS 578T breast.
In assay [3] the test system is SW-620 colon.
For assay [4], the system named is UACC-257 melanoma.
For assay [5], the system named is SK-OV-3 ovarian.
Assay [6] relates to KM12 colon.
The subject of assay [7] is NCI-H460 lung.
Assay [8] concerns UO-31 renal.
In assay [9] the test system is MDA-MB-231 breast.
The test system of assay [10] is TK-10 renal.

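Exposure lasted 48 hours, with cells grown in 96-well plates and compounds tested at five concentrations. Here, GI50 denotes the concentration required for 50% inhibition of growth. Definition used: TGI = concentration required for complete inhibition of growth.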

In the case of `CNC(C)[C@H]1CCC2C3CC=C4C(=O)[C@@H](NC(=O)C=C(C)C)CC[C@]4(C)C3CC[C@@]21C` (stereo not given in full), the GI50 in [1] is 4.53 µM; in assay [2] it was 1.87 µM; in assay [3], 1.7 µM; in [4] it was 2.33 µM; in assay [5] it was 2.75 µM; in assay [6], 2.46 µM. Further, the GI50 in assay [7] was 1.26 µM; in [8] it was 1.33 µM; in assay [9] it was 1.89 µM; in [10] it was 2.89 µM. The TGI in assay [1] was found to be 16.9 µM; in [2] it was 6.82 µM; in [3], 4.03 µM; in assay [4] it was 5.54 µM; in [5] it was 9.5 µM; in assay [6], 10.3 µM. Also, the TGI came out at 2.76 µM in assay [7], 3.14 µM in [8], 4.74 µM in [9] and 10.4 µM in assay [10].
For `Cn1c(=S)c2[nH]c(SCCCc3ccccc3)nc2n(C)c1=O`, the TGI in assay [1] was more than 100 µM; in assay [2] it was more than 100 µM; in assay [3], more than 100 µM; in assay [4], 44.8 µM; in [5], more than 100 µM; in assay [6], more than 100 µM. The TGI in assay [7] was 42.1 µM; in assay [8], 64.4 µM; in [9], more than 100 µM; in assay [10] it was 78.9 µM.
On to `Cc1noc2c1-c1ccccc1C(c1ccc(Cl)cc1)=N[C@H]2CC(N)=O`, for which the GI50 was 79.3 µM in assay [1]; 1.59 µM in assay [2]; 26.1 µM in assay [3]; 7.4 µM in assay [4]; 1.54 µM in [5]; 12.1 µM in assay [6]. For the same molecule, the GI50 in assay [7] was 16.7 µM; in assay [8], 0.283 µM; in assay [9] it was 7.56 µM; in [10] it was 0.486 µM. The TGI is more than 100 µM in assay [1]; more than 85.6 µM in [2]; more than 100 µM in [3]; more than 100 µM in assay [4]; more than 65.7 µM in assay [5]; more than 100 µM in [6]. The TGI in assay [7], in [8], in assay [9] and in assay [10] was more than 100 µM in each case.
`CCOC(=O)c1sc(NC(=O)COc2cccc(/C=C3\CCc4cc(OC)ccc4C3=O)c2)nc1C`: the GI50 in [1] was 1.86 µM; in assay [2] it was 3.94 µM; in assay [3], 3.79 µM; in assay [4] it was 9.79 µM; in assay [5], 6.39 µM; in assay [6], 2.3 µM. The GI50 in assay [7] is 3.19 µM; in [8], 5.99 µM; in assay [9], 10.1 µM; in assay [10] it was 21.7 µM. In addition, the TGI in assay [1] was 3.81 µM; in assay [2], 49.7 µM; in assay [3] it was 13.3 µM; in [4] it was more than 100 µM; in assay [5], more than 100 µM; in assay [6], 5.12 µM. Further, the TGI was 13.8 µM in assay [7], more than 100 µM in assay [8], more than 100 µM in assay [9] and more than 100 µM in assay [10].
On to `C=C1C(O)C2C(=C(C)C13CC3)C(=O)C(C)(C)C2OC` (stereo not given), for which the GI50 in assay [1] was more than 100 µM; in assay [2], 59.6 µM; in assay [3], more than 100 µM; in assay [4], 44.4 µM; in [5], more than 100 µM; in [6] it was more than 100 µM. For the same molecule, the GI50 in assay [7] is more than 100 µM; in assay [8], more than 100 µM; in assay [9], 53.4 µM; in [10], more than 100 µM. Moreover, the TGI in assay [1], in assay [2], in assay [3], in [4], in assay [5] and in [6] was more than 100 µM in each case. The TGI in assay [7], in assay [8], in assay [9] and in assay [10] was more than 100 µM throughout.
Take `COc1ccc(/C=C/c2cnccn2)cc1OC`: the TGI in [1], in [2], in assay [3], in assay [4], in assay [5] and in assay [6] was more than 10 µM in each case. Moreover, the TGI in assay [7], in assay [8], in assay [9] and in assay [10] was more than 10 µM each time.
As to `CN1C(NNC(=O)c2cccnc2)=NS(=O)(=O)c2cc(Cl)ccc21`, the GI50 in assay [1], in [2], in assay [3], in assay [4], in [5] and in assay [6] was more than 100 µM in each case. The GI50 in [7], in assay [8], in assay [9] and in assay [10] was more than 100 µM throughout. In addition, the TGI in assay [1], in assay [2], in assay [3], in [4], in assay [5] and in assay [6] was more than 100 µM throughout. Moreover, the TGI in assay [7], in assay [8], in assay [9] and in assay [10] was more than 100 µM in each case.
On to `CC1=NC(C)(COC(=O)C2(C)NC(C)(CO)CO2)COC1=O` (stereo not given), for which the TGI in assay [1], in assay [2], in [3], in assay [4], in [5] and in [6] was more than 100 µM throughout. In addition, the TGI in [7], in [8], in [9] and in [10] was more than 100 µM each time.
In the case of `O=[N+]([O-])c1ccc(Sc2c3ccccc3nc3ccccc23)cn1`, the TGI was 26.5 µM in assay [1]; 29.7 µM in [2]; more than 57.4 µM in assay [3]; 31.8 µM in [4]; more than 93 µM in [5]; 95.1 µM in assay [6]. The TGI was more than 100 µM in assay [7], 32.3 µM in [8], 42.5 µM in [9] and 28.6 µM in assay [10].
As for `COc1ccc(-c2ccc(NNC(=O)c3ccc(F)cc3)nn2)cc1OC`, the GI50 was more than 100 µM in assay [1]; 63.9 µM in assay [2]; more than 100 µM in assay [3]; more than 100 µM in assay [4]; more than 100 µM in assay [5]; more than 100 µM in assay [6]. In addition, the GI50 in assay [7] was more than 100 µM; in assay [8] it was 31.7 µM; in [9], 93 µM; in assay [10], more than 100 µM. For the same molecule, the TGI in assay [1], in assay [2], in [3], in assay [4], in [5] and in assay [6] was more than 100 µM each time. Also, the TGI in [7], in [8], in [9] and in assay [10] was more than 100 µM in each case.
As for `O=C(NC1CCCCC1)c1ccc(Nc2ncnc3c2cnn3-c2ccccc2)cc1`, the GI50 in assay [1] is 10.6 µM; in assay [2], 3.37 µM; in assay [3], more than 100 µM; in assay [4], 6.42 µM; in assay [5], 2.95 µM; in assay [6], 57.8 µM. Moreover, the GI50 is 7.09 µM in assay [7], 23.9 µM in assay [8], 5.09 µM in assay [9] and 16.5 µM in assay [10]. Besides, the TGI in assay [1] is 48.1 µM; in [2], 34.2 µM; in assay [3] it was more than 100 µM; in [4], more than 100 µM; in assay [5] it was 8.7 µM; in assay [6], more than 100 µM. Further, the TGI in assay [7] was more than 100 µM; in assay [8], more than 100 µM; in assay [9], 21.9 µM; in assay [10], 49.5 µM.
`Cc1c2c(C(N)=O)nccc2c(C)c2c1c1ccccc1n2Cc1ccccc1`: the TGI in [1] is more than 100 µM; in [2], 31.5 µM; in assay [3], 50 µM; in assay [4], more than 100 µM; in assay [5] it was 47.6 µM; in assay [6], 72.6 µM. Further, the TGI in assay [7] stood at 28.8 µM; in assay [8], 37.6 µM; in assay [9], 28 µM; in [10], 35.5 µM.
On to `Cn1cc(-c2csc(-c3cn(C)c4ccc(F)cc34)n2)c2cnccc21`, for which the GI50 was 1.74 µM in assay [1]; 2.36 µM in assay [2]; 1.88 µM in assay [3]; 1.8 µM in assay [4]; 2.03 µM in assay [5]; 1.79 µM in assay [6]. For the same molecule, the GI50 is 1.97 µM in assay [7], 1.64 µM in assay [8], 1.75 µM in assay [9] and 1.56 µM in [10]. Moreover, the TGI in assay [1] was found to be 3.16 µM; in [2] it was 5.12 µM; in [3] it was 3.59 µM; in [4], 3.26 µM; in [5], 3.75 µM; in [6] it was 3.36 µM. Besides, the TGI in [7] was 3.71 µM; in [8], 3.09 µM; in [9], 3.26 µM; in assay [10] it was 2.98 µM.
Regarding `NC(N)=N/N=C(\N=Nc1ccccc1)c1ccc(Cl)cc1`, the GI50 in [1] was 7.38 µM; in assay [2], 4.79 µM; in assay [3] it was 1.41 µM; in assay [4] it was 2.42 µM; in [5], 3.44 µM; in assay [6] it was 2.15 µM. In addition, the GI50 is 3.13 µM in assay [7], 2.29 µM in assay [8], 1.9 µM in [9] and 3.18 µM in assay [10]. The TGI is 21.3 µM in [1]; 46.6 µM in [2]; 3.54 µM in assay [3]; 6.37 µM in [4]; 9.63 µM in [5]; 7.76 µM in [6]. In addition, the TGI in assay [7] was found to be 16.5 µM; in [8], 6.34 µM; in assay [9] it was 12.7 µM; in assay [10], 12 µM.
As for `COc1cc(/C=C/C(=O)C(C(=O)/C=C/c2ccc(OC(=O)CCNC34CC5CC(CC(C5)C3)C4)c(OC)c2)C(=O)CCNC23CC4CC(CC(C4)C2)C3)ccc1OC(=O)CCNC12CC3CC(CC(C3)C1)C2` (stereo not given), the GI50 is 2.21 µM in assay [1]; 2.1 µM in assay [2]; 2.42 µM in [3]; 3.45 µM in assay [4]; 5.44 µM in assay [5]; 2.28 µM in assay [6]. Also, the GI50 in assay [7] is 2.98 µM; in assay [8], 2.71 µM; in [9] it was 3.99 µM; in [10] it was 3.77 µM. Besides, the TGI in assay [1] is 5.02 µM; in assay [2], 6.84 µM; in [3] it was 6.48 µM; in assay [4] it was 14 µM; in assay [5], 36.3 µM; in assay [6] it was 5.96 µM. Besides, the TGI in assay [7] was 10.2 µM; in assay [8], 18.7 µM; in assay [9], 26.5 µM; in assay [10], 18.7 µM.
Take `COc1cc(/C=C/C(=O)Oc2ccccc2)ccc1C(=O)O/C=C/c1ccccc1`: the TGI in [1], in assay [2], in assay [3], in assay [4], in [5] and in [6] was more than 100 µM each time. Moreover, the TGI in [7], in [8], in assay [9] and in [10] was more than 100 µM in each case.
Consider `O=C(N/N=C/c1ccc(O)cc1O)c1cccnc1`, for which the GI50 in assay [1] was 3.45 µM; in assay [2], 7.26 µM; in [3], 4.34 µM; in [4], 3.33 µM; in assay [5], 11.4 µM; in [6] it was 3.62 µM. Further, the GI50 was 1.18 µM in [7], 1.46 µM in assay [8], 3.68 µM in [9] and 2.52 µM in assay [10]. The TGI in [1] was more than 100 µM; in assay [2], 82.1 µM; in assay [3], more than 100 µM; in [4] it was 22.5 µM; in assay [5], more than 100 µM; in assay [6] it was more than 100 µM. The TGI in [7], in [8], in assay [9] and in assay [10] was more than 100 µM throughout.
As for `CS(=O)(=O)CS(=O)(=O)OCCCl`, the TGI was 748 µM in [1]; 1790 µM in assay [2]; 1100 µM in assay [3]; 808 µM in [4]; 423 µM in [5]; 1120 µM in [6]. Moreover, the TGI in assay [7] turned out to be 448 µM; in assay [8], 1080 µM; in assay [9], 918 µM; in assay [10], 1280 µM.

The record behind these values is PubChem BioAssay (NCI).
